Where a SMILES comes first, the peptide text is derived from it. The star is where a group is joined. Cbz = O=C(OCc1ccccc1)*
Key:
GPX4 = test: Western blotting of GPX4 protein abundance; type: cell-based, human
Procedure: Seeded 300,000 cells (HT-1080 or BJeLR) per well in six-well plates. For cotreatment, ferroptosis inducers (10 μM erastin for 11 h, 0.5 μM (1S, 3R)-RSL3 for 2 h, or 5 μM FIN56) and 100 μM α-tocopherol were added to cell culture at the same time, and cells were then incubated for 10 h (FIG. 2E). When other death-modulating compounds (100 nM sodium selenite, 1 μM cerivastatin, 100 μg/mL mevalonic acid, 30 μM C75, or 2 μM cerulenin) were used in cotreatments, cells were pre-incubated with the modulators for 24 h before being treated with ferroptosis inducers for 6 h. Cell lysis, SDS-PAGE and protein transfer to PVDF membrane were performed as previously described (Dixon et al. 2012). We used the following antibodies: anti-human α-tubulin (Santa Cruz Biotechnology, sc-32293, 1:10,000 dilution), anti-human GPX4 (Abcam, ab41787, 1:2,000 dilution), anti-human GPX1 (R&D Systems, AF3798, 1:1,000 dilution), and anti-human SQS (Abcam, ab109723 for full-length, ab195046 for truncated, both at 1:1,000 dilution). Secondary antibodies were from LI-COR (1:3,000 dilution). The PVDF membranes labeled with primary and secondary antibodies were scanned using an Odyssey Imaging System (LI-COR). Experiments were performed in biological triplicates, and the mean±s.e. of intensity was plotted.

HT-1080 cells = test: Cell viability assay (Alamar Blue), lethal compounds with or without modulators; type: cell-based; conditions: HT-1080 cells; for effect of ferroptosis inhibitors (α-tocopherol, deferoxamine) on lethality: cotreatment
Outline: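 HT-1080 cells, 1,000 per well, given twofold 12-point lethal compound series at seeding, 24 h at 37 °C; modulators (100 nM selenite, 1 µM cerivastatin, 100 µg/mL mevalonate) added 24 h before. Alamar Blue 6 h, fluorescence 530/590; viability normalized to vehicle (or modulator) and media wells, typically biological triplicate.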

HT-1080 or BJeLR cells = test: Analysis of ROS generation (H2-DCFDA flow cytometry); type: cell-based
Procedure: Grew 200,000 HT-1080 or BJeLR cells in six-well plates at 37° C. for 16 h. Cells were treated with test compounds, trypsinized, pelleted, and washed once with PBS. For lipophilic or aqueous ROS detection, cells were re-suspended in Hanks' Balanced Salt Solution (HBSS; Life Technologies) containing test compounds as well as C11-BODIPY(581/591) (2 μM) or H2-DCFDA (25 μM), respectively (Life Technologies), and incubated for 10 min at 37° C. Cells were then pelleted, re-suspended in 500 μL HBSS, strained through a 40-μm cell strainer (BD Falcon), and analyzed using a BD Accuri C6 flow cytometer (BD Biosciences). Both dyes were measured in the FL1 channel. Experiments were done in biological triplicates.

[1] = test system: BJeLR, DRD, BJeHLT, and BJeH; test: Viability of four engineered BJ cell lines (HRAS G12V selectivity); type: cell-based, human; conditions: 48 h

SMILES: CC(C)C[C@@H](C=O)NC(=O)[C@H](CC(C)C)NC(=O)[C@H](CC(C)C)NC(=O)OCc1ccccc1 [MG132, reference compound] (Cbz-Leu-Leu-Leu-aldehyde)
- effect on FIN56-induced decrease of GPX4 protein abundance (GPX4; 5 μM FIN56): did not inhibit GPX4 degradation significantly

SMILES: N/C(=N\OC(=O)C12CC3CC(CC(C3)C1)C2)c1ccccc1 [CIL41]
- effect of ferroptosis inhibitors (α-tocopherol, deferoxamine) on lethality (HT-1080 cells): strongly suppressed by ferroptosis inhibitors
- ROS accumulation detected using H2-DCFDA (HT-1080 or BJeLR cells): induced ROS accumulation
- oncogenic RAS selectivity in the BJ engineered cell line series [1]: did not exhibit oncogenic RAS selectivity

SMILES: O=S(=O)(NC1CCCCC1)c1ccc2c(c1)C(=NO)c1cc(S(=O)(=O)NC3CCCCC3)ccc1-2 [FIN56, N2,N7-dicyclohexyl-9-(hydroxyimino)-9H-fluorene-2,7-disulfonamide]
- effect of ferroptosis inhibitors (α-tocopherol, deferoxamine) on lethality (HT-1080 cells): fully suppressed
- suppression of lethality by mevalonate-pathway modulators (FPP, YM-53601, idebenone) and α-tocopherol (HT-1080 cells; modulatory profiling scheme): potently suppressed by all the compounds
- abundance of GPX4 protein (GPX4; BJeLR, cotreatment with 100 μM α-tocopherol, 10 h, FIN56 5 μM): substantially decreased
- kinetics of ROS accumulation compared to (1S, 3R)-RSL3 (HT-1080 or BJeLR cells; BJeLR, 5 μM FIN56 vs 0.5 μM (1S, 3R)-RSL3, 25 μM H2-DCFDA): slower to induce the accumulation of ROS
- oncogenic RAS selectivity in the BJ engineered cell line series [1]: greater oncogenic RAS selectivity
- potency compared to CIL56 ([1]; BJ cell line series): greater potency

SMILES: C[C@@H]1C[C@@H]([C@H](O)CC2CC(=O)NC(=O)C2)C(=O)[C@@H](C)C1 [cycloheximide, Cycloheximide, reference compound]
- amount of GPX4 protein compared to α-tubulin after translation inhibition (GPX4): did not show substantially decreased amounts of GPX4 protein

— patent publication US10947188B2, “Small molecule ferroptosis inducers” (THE TRUSTEES OF COLUMBIA UNIVERSITY IN THE CITY OF NEW YORK, priority 2016, dated 2021)
